Reference: patent US20240101540A1, “TARGETED PROTEIN DEGRADATION OF PARP14 FOR USE IN THERAPY” (Ribon Therapeutics, Inc., priority 2022, published 2024)
Entries after “also recorded” stand apart in the source; their conditions may differ. Where a name gives a salt, the structure may show the parent alone.

Legend:
[1] = tested on: Alternaria asthma mouse model; assay: Alternaria asthma mouse model: cell counts and cytokines in BALF; format: in vivo; details: Alternaria-challenged male Balb/c mice, 30, 100, 300, 1000 mg/kg once daily for 7 days by oral gavage, vs vehicle control (P<0.05), dose-dependent starting from 100 mg/kg
Description: The effect of Compound 64 was studied in an Alternaria asthma mouse model. On days 1-5, male Balb/c mice under isoflurane anesthesia were challenged by instilling a solution of 5 μg (protein weight) Alternaria in 40 μL of PBS into each nostril. Sham-treated mice were administered 40 μL of PBS into each nostril. Compound 64 was administered two days prior to Alternaria challenge (defined day as day −1) and animals were treated with vehicle (0.5% methylcellulose+0.2% Tween 20) or Compound Y (30, 100, 300, 1000 mg/kg) once daily for 7 days (defined as day −1 to day 5) by oral gavage. Total and differential cell counts of the BALF fluid samples were measured using a XT-2000iV analyzer (Sysmex). Cytokine concentrations of BALF supernatant were measured in samples from all groups using ELISA kit (Biotechne, UK).
Statistical significance is calculated using one-way ANOVA followed by Dunnett's post-tests in which the treatment groups were compared to vehicle control (P<0.05).

[2] = target: T1, catalytic domain of human PARP14 (residues 1611 to 1801) with NanoLuc tag (Homo sapiens, UniProt Q460N5); assay: NanoLuc assay for the degradation of PARP14 (NanoLuc-tagged PARP14 overexpressed in HEK-293T cells, 2 hours); format: cell-based; details: Assay A (Example A): NanoLuc-tagged PARP14 degradation in HEK-293T cells, read-out: DC50
T1 construct: expressed in transfected cells; host or cells: HEK-293T cells (ATCC), pcDNA3.1(-) vector
T1 sequence (Q460N5 1611-1801): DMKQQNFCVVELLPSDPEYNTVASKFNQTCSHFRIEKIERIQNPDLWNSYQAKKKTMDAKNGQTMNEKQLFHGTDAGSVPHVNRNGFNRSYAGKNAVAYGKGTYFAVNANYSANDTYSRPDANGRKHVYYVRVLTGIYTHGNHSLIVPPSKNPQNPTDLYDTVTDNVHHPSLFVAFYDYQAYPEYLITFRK

SMILES	DC50 [2] [nM]	other results
O=C1CCC(Nc2ccc(N3CCN(CCN4CCC(COc5cc(F)c6c(=O)[nH]c(CSC7CCOCC7)nc6c5)CC4)CC3)c(F)c2)C(=O)N1 (racemic) [Example 64, 3-((3-fluoro-4-(4-(2-(4-(((5-fluoro-4-oxo-2-(((tetrahydro-2H-pyran-4-yl)thio)methyl)-3,4-dihydroquinazolin-7-yl)oxy)methyl)piperidin-1-yl)ethyl)piperazin-1-yl)phenyl)amino)piperidine-2,6-dione]	< 100	cytokine IL-4 in BALF ([1]; ELISA of BALF supernatant): significantly reduces; cytokine IL-5 in BALF ([1]; ELISA of BALF supernatant): significantly reduces; cytokine IL-33 in BALF ([1]; ELISA of BALF supernatant): significantly reduces; eosinophils in BALF [1]: significantly reduces; total cell counts in BALF (Alternaria-induced cell infiltration) [1]: significantly reduces; also recorded: dose-dependent reduction
O=C1CCC(Nc2ccc(N3CCC(N4CCC(COc5cc(F)c6c(=O)[nH]c(CSC7CCN(CC(F)(F)F)CC7)nc6c5)CC4)CC3)cc2)C(=O)N1 (stereo not shown) [Example 89, 3-((4-(4-(((5-fluoro-4-oxo-2-(((1-(2,2,2-trifluoroethyl)piperidin-4-yl)thio)methyl)-3,4-dihydroquinazolin-7-yl)oxy)methyl)-[1,4′-bipiperidin]-1′-yl)phenyl)amino)piperidine-2,6-dione]	< 100	
O=C1CCC(Nc2ccc(OC3CC(CN4CCC(COc5cc(F)c6c(=O)[nH]c(CS[C@H]7CC[C@H](O)CC7)nc6c5)CC4)C3)cc2)C(=O)N1 (stereo partly shown) [Example 90, 3-((4-(3-((4-(((5-fluoro-2-((((1r,4r)-4-hydroxycyclohexyl)thio)methyl)-4-oxo-3,4-dihydroquinazolin-7-yl)oxy)methyl)piperidin-1-yl)methyl)cyclobutoxy)phenyl)amino)piperidine-2,6-dione formate]	< 100	
O=C1CCC(Nc2ccc(NC3CCN(CCN4CCC(COc5cc(F)c6c(=O)[nH]c(CSC7CCOCC7)nc6c5)CC4)CC3)cc2)C(=O)N1 (stereo not shown) [Example 94, 3-((4-((1-(2-(4-(((5-fluoro-4-oxo-2-(((tetrahydro-2H-pyran-4-yl)thio)methyl)-3,4-dihydroquinazolin-7-yl)oxy)methyl)piperidin-1-yl)ethyl)piperidin-4-yl)amino)phenyl)amino)piperidine-2,6-dione]	< 100	
O=C1CCC(Nc2ccc(N3CC4CCC(C3)N4CCN3CCC(COc4cc(F)c5c(=O)[nH]c(CSC6CCOCC6)nc5c4)CC3)cc2)C(=O)N1 (stereo not shown) [Example 95, 3-((4-(8-(2-(4-(((5-fluoro-4-oxo-2-(((tetrahydro-2H-pyran-4-yl)thio)methyl)-3,4-dihydroquinazolin-7-yl)oxy)methyl)piperidin-1-yl)ethyl)-3,8-diazabicyclo[3.2.1]octan-3-yl)phenyl)amino)piperidine-2,6-dione]	< 100	
O=C1CCC(Nc2ccc(N3CCN(CCN4CCC(COc5cc(F)c6c(=O)[nH]c(CC7CCCC7)nc6c5)CC4)CC3)cc2)C(=O)N1 (stereo not shown) [Example 96, 3-((4-(4-(2-(4-(((2-(cyclopentylmethyl)-5-fluoro-4-oxo-3,4-dihydroquinazolin-7-yl)oxy)methyl)piperidin-1-yl)ethyl)piperazin-1-yl)phenyl)amino)piperidine-2,6-dione]	< 100	
O=C1CCC(Nc2ccc(OC3CC(CN4CCC(COc5cc(F)c6c(=O)[nH]c(CSC7CCN(CC(F)(F)F)CC7)nc6c5)CC4)C3)cc2)C(=O)N1 (stereo not shown) [Example 109]	< 100	
O=C1CCC(Nc2ccc(N3C4CCC3CN(CCN3CCC(COc5cc(F)c6c(=O)[nH]c(CSC7CCOCC7)nc6c5)CC3)C4)cc2)C(=O)N1 (stereo not shown) [Example 121]	< 100	
O=C1CCC(Nc2ccc(N3CCN(CCN4CCC(COc5cc(F)c6c(=O)[nH]c(CSC7CCOCC7)nc6c5)CC4)CC3C(F)(F)F)cc2)C(=O)N1 (stereo not shown) [Example 122]	< 100	
CN(c1ccc(NC2CCC(=O)NC2=O)cc1)C1CCN(CCN2CCC(COc3cc(F)c4c(=O)[nH]c(CSC5CCOCC5)nc4c3)CC2)CC1 (stereo not shown) [Example 123]	< 100	
O=C1CCC(Nc2ccc(N3CCN(C4CCC(COc5cc(F)c6c(=O)[nH]c(CSC7CCOCC7)nc6c5)CC4)CC3)cc2)C(=O)N1 (stereo not shown) [Example 124]	< 100	
